According to ChEMBL document CHEMBL1201862, “PubChem BioAssay data set” (2004):
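Five compound concentrations were applied to cells in 96-well plates for 48 hours; endpoints were derived by simple linear interpolation of the resulting dose-response curve. The concentration for 50% growth inhibition is given as GI50.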 Active and inactive are the calls of the source. No stated cut-off is given here; in the data, active = GI50 up to about 1.1 µM and inactive = higher.

Assays:
Test in all cases: NCI tumour cell line growth inhibition, 48 h
A498 = tested on: A498
MDA-MB-435 = tested on: MDA-MB-435
COLO 205 = tested on: COLO 205
UO-31 = tested on: UO-31
OVCAR-4 = tested on: OVCAR-4
HCT-15 = tested on: HCT-15
MCF7 = tested on: MCF7
SW-620 = tested on: SW-620
DU-145 = tested on: DU-145
HCT-116 = tested on: HCT-116
SNB-19 = tested on: SNB-19
MDA-N = tested on: MDA-N
SF-268 = tested on: SF-268
OVCAR-8 = tested on: OVCAR-8
NCI/ADR-RES = tested on: NCI/ADR-RES
HL-60 = tested on: HL-60
NCI-H522 = tested on: NCI-H522
MDA-MB-231 = tested on: MDA-MB-231
RPMI-8226 = tested on: RPMI-8226
SK-OV-3 = tested on: SK-OV-3

Row | SMILES | GI50 (A498) | GI50 (MDA-MB-435) | GI50 (COLO 205) | GI50 (UO-31) | GI50 (OVCAR-4) | GI50 (HCT-15) [µM] | GI50 (MCF7) | GI50 (SW-620) | GI50 (DU-145) | GI50 (HCT-116) | GI50 (SNB-19) | GI50 (MDA-N) | GI50 (SF-268) | GI50 (OVCAR-8) | GI50 (NCI/ADR-RES) | GI50 (HL-60) | GI50 (NCI-H522) | GI50 (MDA-MB-231) | GI50 (RPMI-8226) | GI50 (SK-OV-3)
1 | CCCCN1CSC(=S)N(Cc2ccccc2)C1 | > 62.1 µM (inactive) | 38.2 µM (inactive) | 23.2 µM (inactive) | > 100 µM (inactive) | 56.8 µM (inactive) | 58.2 | 31.3 µM (inactive) | 37.8 µM (inactive) | 69.3 µM (inactive) | 35.4 µM (inactive) | 66.4 µM (inactive) | 37.6 µM (inactive) | 49.7 µM (inactive) | 66.4 µM (inactive) | 54.3 µM (inactive) | 3.56 µM (inactive) | 23.9 µM (inactive) | > 100 µM (inactive) | 24.9 µM (inactive) | > 100 µM (inactive)
2 | C=C[C@]1(C)C[C@@H](OC(=O)CO)[C@@]2(C)[C@H](C)CC[C@]3(CCC(=O)[C@H]32)[C@@H](C)[C@@H]1O | > 54.6 µM (inactive) | > 68.1 µM (inactive) | > 100 µM (inactive) | > 63.5 µM (inactive) | > 100 µM (inactive) | > 94.8 | 21.5 µM (inactive) | > 82.2 µM (inactive) | > 100 µM (inactive) | > 55.6 µM (inactive) | > 100 µM (inactive) | > 100 µM (inactive) | > 83.2 µM (inactive) | > 100 µM (inactive) | > 100 µM (inactive) | 49.8 µM (inactive) | 67.9 µM (inactive) | > 100 µM (inactive) | 70.5 µM (inactive) | > 100 µM (inactive)
3 | CC(=O)N(C(C)=O)n1nc2c(n1)C(=O)c1ccccc1C2=O | > 100 µM (inactive) | > 100 µM (inactive) | > 100 µM (inactive) | > 100 µM (inactive) | > 100 µM (inactive) | > 100 | > 100 µM (inactive) | > 100 µM (inactive) | > 100 µM (inactive) | > 100 µM (inactive) | > 100 µM (inactive) | > 100 µM (inactive) | > 100 µM (inactive) | > 100 µM (inactive) | > 100 µM (inactive) | > 100 µM (inactive) | > 100 µM (inactive) | > 100 µM (inactive) | > 100 µM (inactive) | > 100 µM (inactive)
4 | COC1(C)CP(=O)(OC(C)C)CC(C)=C1Cl (stereo not given) | 9.42 µM (inactive) | 13.6 µM (inactive) | 14.5 µM (inactive) | 17.8 µM (inactive) | 15 µM (inactive) | 12.3 | 4.67 µM (inactive) | 14.4 µM (inactive) | 19.3 µM (inactive) | 6.37 µM (inactive) | 28.4 µM (inactive) | 13.2 µM (inactive) | 32.2 µM (inactive) | 16.1 µM (inactive) | 17.8 µM (inactive) | 10.9 µM (inactive) | 9.62 µM (inactive) | 15.9 µM (inactive) | 3.78 µM (inactive) | 49.2 µM (inactive)
5 | COCn1c(C)c(C)c2c(=O)oc(=O)[nH]c21 | > 100 µM (inactive) | > 100 µM (inactive) | > 100 µM (inactive) | > 100 µM (inactive) | > 100 µM (inactive) | > 100 | > 100 µM (inactive) | > 100 µM (inactive) | > 100 µM (inactive) | > 100 µM (inactive) | > 100 µM (inactive) | > 100 µM (inactive) | > 100 µM (inactive) | > 100 µM (inactive) | > 100 µM (inactive) | 54.8 µM (inactive) | > 100 µM (inactive) | > 100 µM (inactive) | > 100 µM (inactive) | > 100 µM (inactive)
6 | Nc1nc(Cl)c(/N=N/c2ccc(Cl)cc2)c(NCC2(CO)CCC(CCc3ccccc3)C2)n1 (stereo not given) | 13.2 µM (inactive) | 9.98 µM (inactive) | 4.86 µM (inactive) | 2.1 µM (inactive) | 1.5 µM (inactive) | 6.87 | 5.62 µM (inactive) | 3.92 µM (inactive) | 13.2 µM (inactive) | 6.11 µM (inactive) | 19.5 µM (inactive) | 11.4 µM (inactive) | 6.22 µM (inactive) | 5.4 µM (inactive) | 4.56 µM (inactive) | 4.14 µM (inactive) | 1.31 µM (inactive) | 12.2 µM (inactive) | 12.1 µM (inactive) | 12 µM (inactive)
7 | NC(=O)NNCc1ccccc1 | > 100 µM (inactive) | > 100 µM (inactive) | > 100 µM (inactive) | > 100 µM (inactive) | > 100 µM (inactive) | > 100 | > 100 µM (inactive) | > 100 µM (inactive) | > 100 µM (inactive) | > 100 µM (inactive) | > 100 µM (inactive) | > 100 µM (inactive) | > 100 µM (inactive) | > 100 µM (inactive) | > 100 µM (inactive) | > 100 µM (inactive) | > 100 µM (inactive) | > 100 µM (inactive) | > 100 µM (inactive) | > 100 µM (inactive)
